Assay results reported in article PMC11729425 (ACS Pharmacology & Translational Science, 2024).

What was measured:
[1] = 10-day food admix tolerability in mice (body weight, food intake, plasma AST, ALT, CK); type: in vivo; settings: 10 days
Description: (A) Schematic representation of the de novo sphingolipid synthesis pathway. (B) Chemical structures of myriocin (MYR) and ALT-007. (C) Heatmap analysis comparing the effects of treatments with the indicated concentrations of MYR and ALT-007 on lipid species in C2C12 cells. N = 3 per group. Data are shown as log2 fold change. (D) Body weight curves of mice treated with ALT-007 or vehicle (4 mg/kg/d for 10 days, in the food). (E) Mean food consumption measurement throughout the treatment. (F) Plasma levels of aspartate transaminase (AST), (G) alanine transaminase (ALT) and (H) creatine kinase (CK) after 10 days of treatment with ALT-007 at 4 mg/kg/day. (I) Ceramide levels measured in the gastrocnemius muscle after 10 days of treatment. N = 8 per group. Quantitative data are expressed as median with min to max values. *P < 0.05, **P < 0.01, ***P < 0.001. ANOVA test was used for multiple comparison, and the Mann–Whitney U test when comparing 2 groups. All tests were 2 sided. Abbreviation: SPT, serine palmitoyltransferase; CK, creatine kinase; MYR, Myriocin; ns, nonsignificant.
Plasma parameters were assessed using samples diluted two times (at a 1:1 ratio of plasma to diluent) with the DimensionXpand Plus system from Siemens Healthcare Diagnostics. The biochemical tests were conducted in accordance with the manufacturer’s instructions for each specific parameter. These parameters included transaminase AST (DF41A), transaminase ALT (DF143) and creatine kinase (11097640), all provided by Siemens Healthcare.

[2] = test system: Aged C57BL/6J mice; experiment: Uphill running; type: in vivo, C57BL/6JRj mice; settings: 1 mg/kg in the food, week 13, trend for improvement
Description: Animals were placed on a treadmill at a speed of 15 cm/s in the beginning, then speed was increased by 3 cm/s every 12 min, with an incline of 5°. Mice were taken off the treadmill if they were considered exhausted (5 or more shocks (0.1 mA) per minute for two consecutive minutes) or if the maximum duration of the test was reached (3 h). The maximum running time before exhaustion was recorded and registered as maximum uphill running time.[34]

[3] = test system: N2 wild-type C. elegans; experiment: Lifespan measurements in C. elegans; type: in vivo, Caenorhabditis elegans
Description: Lifespan assays were conducted at 20 °C unless otherwise noted. Synchronous populations were generated by hypochlorite treatment of gravid adults to obtain tightly synchronized embryos, which were then allowed to develop into adulthood under defined conditions. 20–25 worms were placed on NGM plates containing 5-FU seeded with E. coli OP50 bacteria. ALT-007 at a final concentration of 5 μM was added to the top of the plates diluted in DMSO, and DMSO was used at the same concentration as a control. Each condition included at least 170 animals per experiment.
The day of egg collection was designated as t = 0. Animals were transferred to fresh plates every 3 days and examined daily for touch-provoked movement and pharyngeal pumping, until death. Worms that died due to internal hatching of eggs, extruded gonads, or desiccation from crawling off the plate were censored accordingly. Each survival assay was repeated at least twice, and figures show representative results.
Survival curves were generated using the Kaplan–Meier product-limit method. The log-rank (Mantel–Cox) test was used to assess differences in survival and calculate P values. Statistical analyses and lifespan values were determined using GraphPad Prism 10 software. Complete lifespan statistics are presented in Supporting Information Table 1.

[4] = test system: GMC101 worms; experiment: Paralysis scoring in amyloid beta expressing GMC101 worms; type: in vivo, Caenorhabditis elegans; settings: GMC101, 1 μM, day 1 of adulthood
Description: At least 100 worms per condition were manually scored for paralysis after poking. Results are representative of data obtained from at least two independent experiments. ALT-007 was administered at 1 μM and DMSO was used as a control. GMC101 animals were used and scoring was performed at day 1 of adulthood.

[5] = test system: GMC101 and CL2120 amyloid beta expressing animals; experiment: Amyloid beta aggregation in C. elegans (Western blot); type: in vivo, Caenorhabditis elegans
Description: Figure 5 ALT-007 increases lifespan, improves healthspan and reduces protein aggregation in C. elegans. (A) Median and maximal lifespan of […]. elegans animals treated with ALT-007 or vehicle (5 μM). N = 2 biological replicates with at least 170 animals per group. (B) Paralysis and movement analysis of amyloid beta (Ab)-expressing animals treated with ALT-007 or vehicle (1 μM) at day 1 of adulthood. N = 2 biological replicates with at least 50 animals per group. (C) Amyloid aggregation upon ALT-007 treatment and DMSO as a control in GMC101 and CL2120 amyloid beta expressing animals and their respective controls. N = 3 biological replicates with at least 100 animals per group. (D) Quantification of amyloid beta (Ab) levels upon ALT-007 treatment. The log-rank (Mantel-Cox) test was used to evaluate differences between survival curves as indicated in Supplementary Table 1. two-tailed t-test was performed for two-group analysis and one-way analysis of variance (ANOVA) for three-group analysis. Sample preparation: Synchronized animal populations were collected and washed in M9 buffer. […] Protein samples were analyzed by Tricine-SDS-polyacrylamide gel electrophoresis (SDS-PAGE) and transferred to nitrocellulose membrane. Proteins were detected using the following antibodies under the manufacturer's conditions: antiβ-actin (Sigma) and antiAmyloid-beta, 1-16 (6E10) (BioLegend).

[6] = design: method as in PMID 29669694; settings: cited from earlier work
[7] = 4 mg/kg/d in the food, vs DMSO control mice

COc1cc(C(=O)N2CC[C@H](NC(=O)c3ccccc3OC(F)(F)F)c3c2cnn3C(C)C)cnc1OC [ALT-007]
body weight [1, 7]: no differences
food intake [1, 7]: no differences
hepatic toxicity by plasma transaminase (AST, ALT) levels ([1]; 4 mg/kg/day): neither hepatic nor muscle toxicity was identified
muscle toxicity by plasma creatine kinase (CK) levels ([1]; 4 mg/kg/day): neither hepatic nor muscle toxicity was identified
ability to run uphill (maximum running time) [2]: did not significantly improve
toxicity for animal development ([3]; C. elegans, administration at the embryo stage): nontoxic for animal development
maximal lifespan ([3]; N2 wild-type, 5 μM, 20 °C): significantly increased
median lifespan ([3]; N2 wild-type, 5 μM, 20 °C): significantly increased
paralysis induced by amyloid beta aggregation [4]: reduce paralysis
amyloid beta aggregation ([5]; CL2120 strain (CL2122 as a control)): reduce aggregation
amyloid beta aggregates ([5]; GMC101 worms): reducing amyloid beta aggregates
oral bioavailability [6]: orally bioavailable
toxicity in long-term dosing ([6]; rodents): non-toxic in long-term dosing in rodents
